Test system: rat small-intestinal brush border membrane vesicles
Assay: Inhibitory effect on 33PO4 uptake into rat small-intestinal brush border membrane vesicles (rapid filtration method)
Format: biochemical
Settings: 33PO4 uptake into rat small-intestinal BBMVs; test compound 1 µM; reacted for 60 seconds
Method in brief: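 Uptake of ^33PO4 was measured by rapid filtration and liquid scintillation counting of filter-retained vesicles, after quenching with ice-cold 110 mM NaCl/1 mM KH2PO4/10 mM HEPES pH 7.5. Vesicles were brush border membranes from the upper small intestine of female Wistar rats aged 4–5 weeks.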

Compound	Rate of uptake inhibition (%) (1 µM)
CC(C)(C)[C@H]1C(O)=C(C(=O)Nc2cc(F)c(Br)c(F)c2)C(=O)N(Cc2cccc(F)c2F)N1CC(F)(F)F [Example 248]	45%
CCCCCN1C(=O)C(C(=O)Nc2ccc(C(F)(F)F)cc2-c2ccc(C(F)(F)F)nc2)=C(O)[C@@]2(C)CCCN12 [Example 26]	72%
COc1cccc(-c2cc(C(F)(F)F)ccc2NC(=O)C2=C(O)[C@@]3(C)CCCN3N(Cc3ccc(OC[C@H]4CCCO4)c(F)c3F)C2=O)c1OC [Example 159]	89%
C[C@]12CCCN1N(Cc1ccc(OCCN3CCOCC3)c(F)c1F)C(=O)C(C(=O)Nc1ccc(C(F)(F)F)nc1-c1cncc(C(F)(F)F)c1)=C2O [Example 106]	79%
C[C@]12CCCN1N(Cc1cccc(F)c1F)C(=O)C(C(=O)Nc1ccc(C(F)(F)F)cc1-c1cncc(C(F)(F)F)c1)=C2O [Example 91]	87%
CSc1ccc(-c2cc(C(F)(F)F)ccc2NC(=O)C2=C(O)[C@H](C(C)(C)C)N(C)N(Cc3ccc(OCCN4CCOCC4)c(F)c3F)C2=O)cn1 [Example 268]	63%
C[C@]12CCCN1N(Cc1cccc(F)c1F)C(=O)C(C(=O)Nc1ccc(C(F)(F)F)cc1-c1cc(C(F)(F)F)ncn1)=C2O [Example 21, (4aR)-1-[(2,3-Difluorophenyl)methyl]-4-hydroxy-4a-methyl-2-oxo-N-[4-(trifluoromethyl)-2-[6-(trifluoromethyl)pyrimidin-4-yl]phenyl]-6,7-dihydro-5H-pyrrolo[1,2-b]pyridazine-3-carboxamide]	61%
C[C@]12CCCN1N(Cc1cccc(F)c1F)C(=O)C(C(=O)Nc1ccc(Cl)cc1F)=C2O [Example 76]	77%
Cc1c(C#N)ncnc1-c1cc(C(F)(F)F)ccc1NC(=O)C1=C(O)[C@@]2(C)CCCN2N(Cc2cccc(F)c2F)C1=O [Example 24]	76%
(4aR)-1-[(3-Fluorophenyl)methyl]-4-hydroxy-N-[5-methyl-2-(trifluoromethyl)furan-3-yl]-2-oxo-4a-propyl-6,7-dihydro-5H-pyrrolo[1,2-b]pyridazine-3-carboxamide [Example 11]	22%
COCCCN(C)C(=O)c1cc(CN2C(=O)C(C(=O)Nc3ccc(C(F)(F)F)cc3-c3cc(C(F)(F)F)ncn3)=C(O)C3(CCCC3)N2C)c(F)c(F)c1OCCN(C)CCOC [Example 438, 7-[[2,3-Difluoro-4-[2-[2-methoxyethyl(methyl)amino]ethoxy]-5-[3-methoxypropyl(methyl)carbamoyl]phenyl]methyl]-10-hydroxy-6-methyl-8-oxo-N-[4-(trifluoromethyl)-2-[6-(trifluoromethyl)pyrimidin-4-yl]phenyl]-6,7-diazaspiro[4.5]dec-9-ene-9-carboxamide]	33%
C[C@]12CCCN1N(Cc1ccc(OCCN3CCOCC3)c(F)c1F)C(=O)C(C(=O)Nc1ccc(Cl)cc1-c1ccc(C(F)(F)F)nc1)=C2O [Example 102]	65%
CN1N(Cc2ccc(OCCN3CCOCC3)c(F)c2F)C(=O)C(C(=O)Nc2ccc(C(F)(F)F)cc2-c2ccc(C(F)(F)F)nc2)=C(O)C1(C)C [Example 314, 2-[[2,3-Difluoro-4-(2-morpholin-4-ylethoxy)phenyl)methyl]-5-hydroxy-1,6,6-trimethyl-3-oxo-N-[4-(trifluoromethyl)-2-[6-(trifluoromethyl)pyridin-3-yl]phenyl]pyridazine-4-carboxamide]	72%
CN(C)CC(C)(C)COc1ccc(CN2C(=O)C(C(=O)Nc3ccc(C(F)(F)F)cc3-c3cc(C(F)(F)F)ncn3)=C(O)C3(CCCC3)N2C)c(F)c1F [Example 414, 7-(4-(3-(Dimethylamino)-2,2-dimethylpropoxy)-2,3-difluorobenzyl)-10-hydroxy-6-methyl-8-oxo-N-(4-(trifluoromethyl)-2-(6-(trifluoromethyl)pyrimidin-4-yl)phenyl)-6,7-diazaspiro[4.5]dec-9-ene-9-carboxamide]	27%
C[C@]12CCCN1N(Cc1c(F)cc(C#CCCOC[C@H](O)CO)cc1F)C(=O)C(C(=O)Nc1ccc(C(F)(F)F)cc1-c1ccc(C(F)(F)F)nc1)=C2O [Example 145]	78%
CN1N(Cc2ccc(OCCN3CCN(CCCO)CC3)c(F)c2F)C(=O)C(C(=O)Nc2ccc(C(F)(F)F)cc2-c2cc(C(F)(F)F)ncn2)=C(O)C12CCC2 [Example 362]	17%
C[C@]12CCCN1N(Cc1ccc(F)c(F)c1)C(=O)C(C(=O)Nc1ccc(C(F)(F)F)cc1-c1ccc(C(F)(F)F)nc1)=C2O [Example 170]	73%
CN1[C@@H](C(C)(C)C)C(O)=C(C(=O)Nc2ccc(C(F)(F)F)cc2C(F)(F)F)C(=O)N1Cc1ccc(OCCN2CCOCC2)c(F)c1F [Example 277]	41%
Cc1cc(NC(=O)C2=C(O)[C@@H]3CC(C)(C)CN3N(Cc3cccc(F)c3)C2=O)c(C(F)(F)F)o1 [Example 3]	11%
CN1N(Cc2ccc(OCCCCCC(=O)O)c(F)c2F)C(=O)C(C(=O)Nc2ccc(C(F)(F)F)cc2-c2cc(C(F)(F)F)ncn2)=C(O)C12CCCC2 [Example 334]	22%
CN1N(Cc2ccc(OCCN3CCOC(C)(C)C3)c(F)c2F)C(=O)C(C(=O)Nc2ccc(C(F)(F)F)cc2-c2cc(C(F)(F)F)ncn2)=C(O)C12CCC2 [Example 342]	43%
C[C@]12CCCN1N(Cc1cc(F)cc(F)c1)C(=O)C(C(=O)Nc1cc(F)c(Br)c(F)c1)=C2O [Example 190]	84%
CCC1(CC)C(O)=C(C(=O)Nc2ccc(Cl)cc2-c2ccc(C(F)(F)F)nc2)C(=O)N(Cc2ccc(OCCN3CCOCC3)c(F)c2F)N1C [Example 294]	40%
C[C@]12CCCN1N(Cc1c(Cl)cc(OCCN3CCOCC3)cc1Cl)C(=O)C(C(=O)Nc1cnc(C(F)(F)F)nc1-c1ccc(C(F)(F)F)nc1)=C2O.Cl [Example 146, (4aR)-1-[[2,6-Dichloro-4-(2-morpholin-4-ylethoxy)phenyl]methyl]-4-hydroxy-4a-methyl-2-oxo-N-[2-(trifluoromethyl)-4-[6-(trifluoromethyl)pyridin-3-yl]pyrimidin-5-yl]-6,7-dihyvdro-5H-pyrrolo[1,2-b]pyridazine-3-carboxamide hydrochloride]	71%
Cc1ccc(CN2C(=O)C(C(=O)Nc3ccc(C(F)(F)F)cc3-c3cc(C(F)(F)F)ncn3)=C(O)[C@@]3(C)CCCN23)cc1 [Example 187]	80%
CN1N(Cc2cccc(F)c2F)C(=O)C(C(=O)Nc2ccc(C(F)(F)F)cc2-c2cncc(C(F)(F)F)c2)=C(O)C1(C)C [Example 305]	66%
COCCN1CCN(CCOc2ccc(CN3C(=O)C(C(=O)Nc4ccc(C(F)(F)F)cc4-c4cc(C(F)(F)F)ncn4)=C(O)C4(CCCC4)N3C)c(F)c2F)CC1 [Example 377]	29%

— EP3928779A1 (Chugai Seiyaku Kabushiki Kaisha, priority 2014, dated 2016)
